Assay results taken from US20060046968A1, “Prodrug substituted benzoxazoles as estrogenic agents” (priority 2004, published 2006).
pIC50: −log10 of the molar value.

What was measured:
[1] = system: Progesterone receptor mRNA; assay: Progesterone receptor mRNA regulation in the preoptic area of the rat brain; assay type: in vivo; settings: 10 mg/kg
[2] = system: Sexually immature 129 SvE mice; assay: Mouse uterotrophic test procedure (Procedure 2); assay type: in vivo; settings: compound 50 mg/kg s.c., days 22-25
human ERα = biological target: T1, human ERα (Homo sapiens, UniProt P03372); assay: ER radioligand binding competition, ERα; settings: competition with [3H]-17β-estradiol; read-out: ER-α IC50
T1 construct: These templates contained amino acids M250-V595 of human ERα; His (N); Flag (C); made in house; host or cells: E. coli BL21 (DE3), clarified lysate
T1 sequence (P03372 250-595): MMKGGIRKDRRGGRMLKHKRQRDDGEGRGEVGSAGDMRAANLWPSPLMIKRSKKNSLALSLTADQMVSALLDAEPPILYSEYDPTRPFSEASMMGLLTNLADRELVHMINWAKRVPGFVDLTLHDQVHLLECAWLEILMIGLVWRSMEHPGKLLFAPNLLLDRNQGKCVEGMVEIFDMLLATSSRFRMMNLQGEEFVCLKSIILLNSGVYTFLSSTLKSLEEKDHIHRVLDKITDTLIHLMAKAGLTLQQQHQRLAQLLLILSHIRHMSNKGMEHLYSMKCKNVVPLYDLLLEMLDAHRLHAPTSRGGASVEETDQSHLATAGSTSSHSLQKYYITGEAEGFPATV

human ERβ = biological target: T2, human ERβ (Homo sapiens, UniProt Q92731); assay: ER radioligand binding competition, ERβ
T2 construct: Flag (C); made in house; host or cells: E. coli BL21 (DE3), clarified lysate
T2 sequence (Q92731 214-530): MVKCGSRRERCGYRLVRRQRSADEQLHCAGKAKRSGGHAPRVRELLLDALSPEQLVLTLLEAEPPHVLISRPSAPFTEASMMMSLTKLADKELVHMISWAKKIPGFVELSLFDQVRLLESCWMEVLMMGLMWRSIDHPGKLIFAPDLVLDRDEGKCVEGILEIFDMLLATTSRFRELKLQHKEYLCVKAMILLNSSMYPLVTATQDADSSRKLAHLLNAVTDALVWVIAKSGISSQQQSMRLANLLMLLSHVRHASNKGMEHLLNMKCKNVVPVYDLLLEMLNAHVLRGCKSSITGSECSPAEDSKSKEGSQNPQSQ

SMILES | Progesterone receptor mRNA (mean ± stdev) [1] | mean uterine weight ± SEM [2] | pIC50 (human ERα) | pIC50 (human ERβ)
C=C(F)c1cc(O)cc2nc(-c3ccc(O)c(F)c3)oc12 [Example 64, 2-(3-FLUORO-4-HYDROXYPHENYL)-7-(1-FLUOROVI NYL)-1,3-BENZOXAZOL-5-OL] | 431.3 ± 65.6 arbitrary units | 9.8 ± 0.7 mg | 6.42 | 8.52
C=Cc1cc(O)cc2nc(-c3ccc(O)c(F)c3F)oc12 [Example 26, 2-(2,3-DIFLUORO-4-HYDROXYPHENYL)-7-VINYL-1,3-BENZOXAZOL-5-OL] | 467.8 ± 66.7 arbitrary units | 9.0 ± 0.3 mg |  | 
